# In US7902373B2 (Pfizer Inc, priority 2006, dated 2011):
# Molecular target: human recombinant H-PGDS (Homo sapiens, UniProt O60760)
# Assay: Fluorescence intensity h-PGDS TBA enzyme assay
# Assay type: biochemical
# Settings: Examples up to 622 (and 3a, 3b)
# human recombinant H-PGDS, sequence (O60760 whole entry): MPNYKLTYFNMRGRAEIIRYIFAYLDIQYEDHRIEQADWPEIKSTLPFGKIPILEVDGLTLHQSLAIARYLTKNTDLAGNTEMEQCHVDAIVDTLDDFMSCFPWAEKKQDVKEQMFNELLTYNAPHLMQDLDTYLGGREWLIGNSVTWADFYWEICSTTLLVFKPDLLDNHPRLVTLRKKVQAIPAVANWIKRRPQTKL
row,SMILES,IC50 [nM]
1,"O=C(NC1CCN(Cc2c[nH]nc2-c2ccc(F)cc2)CC1)c1ccc(-c2cccc(F)c2)nc1 [Example 187, 6-(3-Fluorophenyl)-N-(1-{[3-(4-fluorophenyl)-1H-pyrazol-4-yl]methyl}piperidin-4-yl)nicotinamide]",2.59
2,"O=C(NC1CCN(Cc2cccc(-c3ccccn3)c2)CC1)c1ccc(-c2cccc(F)c2)nc1 [Example 188, 6-(3-Fluorophenyl)-N-[1-(3-pyridin-2-ylbenzyl)piperidin-4-yl]nicotinamide]",2.25
3,"O=C(NC1CCN(Cc2c[nH]cn2)CC1)c1ccc(-c2cccc(F)c2)nc1 [Example 190, 6-(3-Fluorophenyl)-N-[1-(1H-imidazol-5-ylmethyl)piperidin-4-yl]nicotinamide]",1.83
4,"O=C(NC1CCN(Cc2ccc(F)c(F)c2)CC1)c1ccc(-c2cccc(F)c2)nc1 [Example 193, N-[1-(3,4-difluorobenzyl)piperidin-4-yl]-6-(3-fluorophenyl)nicotinamide]",0.768
5,"O=C(CN1CCC(NC(=O)c2ccc(-c3cccc(F)c3)nc2)CC1)c1ccccc1 [Example 194, 6-(3-Fluorophenyl)-N-[1-(2-oxo-2-phenylethyl)piperidin-4-yl]nicotinamide]",3.5
6,"Cn1cc(CN2CCC(NC(=O)c3ccc(-c4cccc(F)c4)nc3)CC2)cn1 [Example 196, 6-(3-Fluorophenyl)-N-{1-[(1-methyl-1H-pyrazol-4-yl)methyl]piperidin-4-yl}nicotinamide]",1.35
7,"O=C(NC1CCN(Cc2cccc(-c3cnccn3)c2)CC1)c1ccc(-c2cccc(F)c2)nc1 [Example 198, 6-(3-Fluorophenyl)-N-[1-(3-pyrazin-2-ylbenzyl)piperidin-4-yl]nicotinamide]",1.04
8,"CCCCc1nc(CN2CCC(NC(=O)c3ccc(-c4cccc(F)c4)nc3)CC2)c[nH]1 [Example 199, N-{1-[(2-Butyl-1H-imidazol-4-yl)methyl]piperidin-4-yl}-6-(3-fluorophenyl)nicotinamide]",2.7
9,"O=C(NC1CCN(Cc2ccc3c(c2)OCCCO3)CC1)c1ccc(-c2cccc(F)c2)nc1 [Example 200, N-[1-(3,4-Dihydro-2H-15-benzodioxepin-7-ylmethyl)piperidin-4-yl]-6-(3-fluorophenyl)nicotinamide]",1.61
10,"O=C(NC1CCN(Cc2ccc(-c3ccccn3)cc2)CC1)c1ccc(-c2cccc(F)c2)nc1 [Example 201, 6-(3-Fluorophenyl)-N-[1-(4-pyridin-2-ylbenzyl)piperidin-4-yl]nicotinamide]",1.93
11,"Cc1ccc(CN2CCC(NC(=O)c3ccc(-c4cccc(F)c4)nc3)CC2)cc1F [Example 202, N-[1-(3-Fluoro-4-methylbenzyl)piperidin-4-yl]-6-(3-fluorophenyl)nicotinamide]",1.17
12,"CC(C)(C)OC(=O)NC1(CN2CCC(NC(=O)c3ccc(-c4cccc(F)c4)nc3)CC2)CC1 [Example 203, tert-Butyl(1-{[4-({[6-(3-fluorophenyl)pyridin-3-yl]carbonyl}amino)piperidin-1-yl]methyl}cyclopropyl)carbamate]",2.17
13,"CC(C)Oc1cccc(CN2CCC(NC(=O)c3ccc(-c4cccc(F)c4)nc3)CC2)c1 [Example 206, 6-(3-Fluorophenyl)-N-[1-(3-isopropoxybenzyl)piperidin-4-yl]nicotinamide]",1.84
14,"Cn1c(CN2CCC(NC(=O)c3ccc(-c4cccc(F)c4)nc3)CC2)cc2ccccc21 [Example 207, 6-(3-Fluorophenyl)-N-{1-[(1-methyl-1H-indol-2-yl)methyl]piperidin-4-yl}nicotinamide]",1.59
15,"CCc1ncc(CN2CCC(NC(=O)c3ccc(-c4cccc(F)c4)nc3)CC2)[nH]1 [Example 208, N-{1-[(2-Ethyl-1H-imidazol-5-yl)methyl]piperidin-4-yl}-6-(3-fluorophenyl)nicotinamide]",5.98
16,"Cc1nn(C(C)(C)C)c(C)c1CN1CCC(NC(=O)c2ccc(-c3cccc(F)c3)nc2)CC1 [Example 209, N-{1-[(1-tert-Butyl-3,5-dimethyl-1H-pyrazol-4-yl)methyl]piperidin-4-yl}-6-(3-fluorophenyl)nicotinamide]",1.37
17,"COc1ccc(CC2CC(NC(=O)c3ccc(-c4cccc(F)c4)nc3)CCN2)cc1OC (centres unmarked) [Example 212, N-[2-(3,4-Dimethoxybenzyl)piperidin-4-yl]-6-(3-fluorophenyl)nicotinamide]",1.4
18,"CN(C)CCCOc1ccc(CN2CCC(NC(=O)c3ccc(-c4cccc(F)c4)nc3)CC2)cc1 [Example 214, N-(1-{4-[3-(Dimethylamino)propoxy]benzyl}piperidin-4-yl)-6-(3-fluorophenyl)nicotinamide]",5.55
19,"CC(C)Oc1ccc(CN2CCC(NC(=O)c3ccc(-c4cccc(F)c4)nc3)CC2)cc1 [Example 217, 6-(3-Fluorophenyl)-N-[1-(4-isopropoxybenzyl)piperidin-4-yl]nicotinamide]",1.51
20,"COc1ccc(CN2CCC(NC(=O)c3ccc(-c4cccc(F)c4)nc3)CC2)c(OC)c1 [Example 220, N-[1-(2,4-Dimethoxybenzyl)piperidin-4-yl]-6-(3-fluorophenyl)nicotinamide]",2.42
21,"COc1ccc(CN2CCC(NC(=O)c3ccc(-c4cccc(F)c4)nc3)CC2)cc1 [Example 222, 6-(3-Fluorophenyl)-N-[1-(4-methoxybenzyl)piperidin-4-yl]nicotinamide]",6.64
22,"O=C(NC1CCN(Cc2cc(Br)ccc2O)CC1)c1ccc(-c2cccc(F)c2)nc1 [Example 223, N-[1-(5-Bromo-2-hydroxybenzyl)piperidin-4-yl]-6-(3-fluorophenyl)nicotinamide]",0.928
23,"O=C(NC1CCN(Cc2ccc(Cl)cc2)CC1)c1ccc(-c2cccc(F)c2)nc1 [Example 225, N-[1-(4-Chlorobenzyl)piperidin-4-yl]-6-(3-fluorophenyl)nicotinamide]",2.48
24,"COc1ccc2[nH]cc(CN3CCC(NC(=O)c4ccc(-c5cccc(F)c5)nc4)CC3)c2c1 [Example 226, 6-(3-Fluorophenyl)-N-{1-[(5-methoxy-1H-indol-3-yl)methyl]piperidin-4-yl}nicotinamide]",1.42
25,"N#Cc1ccc(CN2CCC(NC(=O)c3ccc(-c4cccc(F)c4)nc3)CC2)cc1 [Example 227, N-[1-(4-Cyanobenzyl)piperidin-4-yl]-6-(3-fluorophenyl)nicotinamide]",0.815

# Continued, values first:
row,IC50 [nM],SMILES
1,0.502,"O=C(NC1CCN(Cc2ccnc3ccccc23)CC1)c1ccc(-c2cccc(F)c2)nc1 [Example 189, 6-(3-Fluorophenyl)-N-[1-(quinolin-4-ylmethyl)piperidin-4-yl]nicotinamide]"
2,0.171,"Cn1cc(Cl)c(CN2CCC(NC(=O)c3ccc(-c4cccc(F)c4)nc3)CC2)n1 [Example 191, N-{1-[(4-Chloro-1-methyl-1H-pyrazol-3-yl)methyl]piperidin-4-yl}-6-(3-fluorophenyl)nicotinamide]"
3,0.701,"COc1cc(CN2CCC(NC(=O)c3ccc(-c4cccc(F)c4)nc3)CC2)ccc1F [Example 192, N-[1-(4-Fluoro-3-methoxybenzyl)piperidin-4-yl]-6-(3-fluorophenyl)nicotinamide]"
4,0.194,"Cn1nc(-c2ccccc2)c(CN2CCC(NC(=O)c3ccc(-c4cccc(F)c4)nc3)CC2)c1Cl [Example 195, N-{1-[(5-Chloro-1-methyl-3-phenyl-1H-pyrazol-4-yl)methyl]piperidin-4-yl}-6-(3-fluorophenyl)nicotinamide]"
5,0.578,"O=C(NC1CCN(Cc2cccc3cccnc23)CC1)c1ccc(-c2cccc(F)c2)nc1 [Example 197, 6-(3-Fluorophenyl)-N-[1-(quinolin-8-ylmethyl)piperidin-4-yl]nicotinamide]"
6,0.067,"COc1ccc(CN2CCC(NC(=O)c3ccc(-c4cccc(F)c4)nc3)CC2)cc1Cl [Example 204, N-[1-(3-Chloro-4-methoxybenzyl)piperidin-4-yl]-6-(3-fluorophenyl)nicotinamide]"
7,0.238,"COc1ccc(OC)c(CN2CCC(NC(=O)c3ccc(-c4cccc(F)c4)nc3)CC2)c1 [Example 205, N-[1-(2,5-Dimethoxybenzyl)piperidin-4-yl]-6-(3-fluorophenyl)nicotinamide]"
8,0.46,"O=C(NC1CCN(Cc2ccc(-n3cccn3)cc2)CC1)c1ccc(-c2cccc(F)c2)nc1 [Example 210, 6-(3-Fluorophenyl)-N-{1-[4-(1H-pyrazol-1-yl)benzyl]piperidin-4-yl}nicotinamide]"
9,0.453,"COc1cccc(F)c1CN1CCC(NC(=O)c2ccc(-c3cccc(F)c3)nc2)CC1 [Example 211, N-[1-(2-Fluoro-6-methoxybenzyl)piperidin-4-yl]-6-(3-fluorophenyl)nicotinamide]"
10,0.469,"N#Cc1ccccc1CN1CCC(NC(=O)c2ccc(-c3cccc(F)c3)nc2)CC1 [Example 213, N-[1-(2-Cyanobenzyl)piperidin-4-yl]-6-(3-fluorophenyl)nicotinamide]"
11,0.38,"Cn1ccnc1CN1CCC(NC(=O)c2ccc(-c3cccc(F)c3)nc2)CC1 [Example 215, 6-(3-Fluorophenyl)-N-{1-[(1-methyl-1H-imidazol-2-yl)methyl]piperidin-4-yl}nicotinamide]"
12,0.36,"O=C(NC1CCN(Cc2nccs2)CC1)c1ccc(-c2cccc(F)c2)nc1 [Example 216, 6-(3-Fluorophenyl)-N-[1-(1,3-thiazol-2-ylmethyl)piperidin-4-yl]nicotinamide]"
13,0.448,"O=C(NC1CCN(Cc2cc(F)c(F)cc2F)CC1)c1ccc(-c2cccc(F)c2)nc1 [Example 218, 6-(3-Fluorophenyl)-N-[1-(245-trifluorobenzyl)piperidin-4-yl]nicotinamide]"
14,0.749,"Cn1c(CN2CCC(NC(=O)c3ccc(-c4cccc(F)c4)nc3)CC2)nc2ccccc21 [Example 219, 6-(3-Fluorophenyl)-N-{1-[(1-methyl-1H-benzimidazol-2-yl)methyl]piperidin-4-yl}nicotinamide]"
15,0.446,"O=C(NC1CCN(CC2CC=CCC2)CC1)c1ccc(-c2cccc(F)c2)nc1 (centres unmarked) [Example 221, N-[1-(Cyclohex-3-en-1-ylmethyl)piperidin-4-yl]-6-(3-fluorophenyl)nicotinamide]"
16,0.342,"COc1cccc(CN2CCC(NC(=O)c3ccc(-c4cccc(F)c4)nc3)CC2)c1 [Example 224, 6-(3-Fluorophenyl)-N-[1-(3-methoxybenzyl)piperidin-4-yl]nicotinamide]"
